Laboratory results: ChEMBL document CHEMBL1201862, “PubChem BioAssay data set” (2004)
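Method: 48-hour compound exposure of cells in 96-well plates, five concentrations, linear interpolation of endpoints. The concentration for 50% growth inhibition is given as GI50.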 The source made the active and inactive calls. Rule as the data show it: active = GI50 up to about 1.1 µM and inactive = higher.

What was measured:
Assay in all cases: growth of human tumour cells (NCI), 48 h
[1] = system: A498
[2] = system: A549
[3] = system: COLO 205
[4] = system: EKVX
[5] = system: HL-60
[6] = system: HOP-62
[7] = system: M14
[8] = system: MDA-N
[9] = system: NCI-H226
[10] = system: NCI-H23
[11] = system: OVCAR-5
[12] = system: OVCAR-8
[13] = system: PC-3
[14] = system: RPMI-8226
[15] = system: SK-MEL-28
[16] = system: SNB-19
[17] = system: U-251
[18] = system: UACC-257
[19] = system: UACC-62
[20] = system: HCC 2998

Row | SMILES | GI50 [1] | GI50 [2] | GI50 [3] | GI50 [4] | GI50 [5] | GI50 [6] | GI50 [7] | GI50 [8] | GI50 [9] | GI50 [10] | GI50 [11] | GI50 [12] | GI50 [13] | GI50 [14] | GI50 [15] | GI50 [16] | GI50 [17] | GI50 [18] | GI50 [19] | GI50 [20]
1 | Nc1nc(=O)c(/N=N/c2ccccc2)c(C(=O)O)[nH]1 | > 100 µM (inactive) | 84.5 µM (inactive) | > 100 µM (inactive) | 23.3 µM (inactive) | 37.9 µM (inactive) | 55.3 µM (inactive) | > 100 µM (inactive) | > 100 µM (inactive) | > 100 µM (inactive) | > 100 µM (inactive) | > 100 µM (inactive) | > 100 µM (inactive) | > 100 µM (inactive) | 63.8 µM (inactive) | > 100 µM (inactive) | > 100 µM (inactive) | 56.9 µM (inactive) | 62.8 µM (inactive) | > 100 µM (inactive) | –
2 | C#C[C@]1(O)CC[C@H]2[C@@H]3CCC4=C/C(=N/CCOC(=O)c5cccc6cc7ccccc7nc56)CC[C@@H]4[C@H]3CC[C@@]21C | 41 µM (inactive) | 28.4 µM (inactive) | 90.6 µM (inactive) | 34.8 µM (inactive) | > 100 µM (inactive) | 35.2 µM (inactive) | 23 µM (inactive) | 37.6 µM (inactive) | > 100 µM (inactive) | 19.9 µM (inactive) | 40.5 µM (inactive) | 10 µM (inactive) | 11.7 µM (inactive) | – | 75.2 µM (inactive) | 30.4 µM (inactive) | 12.7 µM (inactive) | 27.8 µM (inactive) | 22 µM (inactive) | –
3 | NC1=CN(Cc2ccccc2)C2=N/C(=C\c3ccco3)C(=O)N12 | > 100 µM (inactive) | > 100 µM (inactive) | > 100 µM (inactive) | > 100 µM (inactive) | > 100 µM (inactive) | > 100 µM (inactive) | > 100 µM (inactive) | > 100 µM (inactive) | > 100 µM (inactive) | > 100 µM (inactive) | > 100 µM (inactive) | > 100 µM (inactive) | > 100 µM (inactive) | – | > 100 µM (inactive) | > 100 µM (inactive) | > 100 µM (inactive) | > 100 µM (inactive) | > 100 µM (inactive) | > 100 µM (inactive)
4 | Cc1ccc(-c2cc(-c3ccc(Cl)cc3)nc(/N=C3\C(=O)N(CN(C)C)c4ccccc43)n2)cc1 | > 100 µM (inactive) | 89.1 µM (inactive) | 77.8 µM (inactive) | > 100 µM (inactive) | 7.89 µM (inactive) | 81.5 µM (inactive) | > 100 µM (inactive) | 19.4 µM (inactive) | > 100 µM (inactive) | 33.6 µM (inactive) | > 100 µM (inactive) | 58.9 µM (inactive) | 50.9 µM (inactive) | – | > 100 µM (inactive) | > 100 µM (inactive) | 55 µM (inactive) | 24.8 µM (inactive) | 97.1 µM (inactive) | –
5 | S=C(CSc1ccccc1)Nc1cccc2ccccc12 | 23.1 µM (inactive) | 42 µM (inactive) | 16.4 µM (inactive) | 58.9 µM (inactive) | 40.9 µM (inactive) | 77.3 µM (inactive) | 54.2 µM (inactive) | 40.7 µM (inactive) | 42 µM (inactive) | 41.4 µM (inactive) | 72.1 µM (inactive) | 67 µM (inactive) | 35.6 µM (inactive) | 35.6 µM (inactive) | > 100 µM (inactive) | 76.9 µM (inactive) | 38.8 µM (inactive) | 22.3 µM (inactive) | 32.7 µM (inactive) | –
6 | N=C(CC(=O)Nc1ccccn1)c1ccccc1 | > 100 µM (inactive) | > 100 µM (inactive) | > 100 µM (inactive) | > 100 µM (inactive) | > 100 µM (inactive) | > 100 µM (inactive) | > 100 µM (inactive) | > 100 µM (inactive) | > 100 µM (inactive) | > 100 µM (inactive) | > 100 µM (inactive) | > 100 µM (inactive) | > 100 µM (inactive) | > 100 µM (inactive) | > 100 µM (inactive) | > 100 µM (inactive) | > 100 µM (inactive) | > 100 µM (inactive) | > 100 µM (inactive) | –
7 | C=C(CN1CC2C[C@](C(=O)OC)(c3cc4ccccc4[nH]3)C1C(OC)C2OC)S(=O)(=O)c1ccccc1 (stereo partly drawn) | – | 3.13 µM (inactive) | 2.54 µM (inactive) | 3.3 µM (inactive) | 1.92 µM (inactive) | 4.78 µM (inactive) | 2.91 µM (inactive) | 2.69 µM (inactive) | 5.07 µM (inactive) | 2.91 µM (inactive) | 3.71 µM (inactive) | 3.14 µM (inactive) | 3.19 µM (inactive) | 0.245 µM (active) | 7.53 µM (inactive) | 10.8 µM (inactive) | 2.88 µM (inactive) | 2.65 µM (inactive) | 4.11 µM (inactive) | 1.87 µM (inactive)
8 | COC(=O)C1(C(=O)OC)Cc2ccc(C)cc2C2=C1C(=O)c1ccccc1C2=O | – | 29.9 µM (inactive) | – | 14.6 µM (inactive) | 31.6 µM (inactive) | 14.4 µM (inactive) | > 10 µM (inactive) | 16.5 µM (inactive) | > 100 µM (inactive) | 18.2 µM (inactive) | 21 µM (inactive) | 13.3 µM (inactive) | 15.2 µM (inactive) | – | 16.6 µM (inactive) | 58.6 µM (inactive) | – | 16.5 µM (inactive) | 13.8 µM (inactive) | –
9 | CC(C)(C)C1=C(Br)C(O)(C(C)(C)C)OP1(=O)c1ccccc1 (stereo not drawn) | > 100 µM (inactive) | > 100 µM (inactive) | > 100 µM (inactive) | > 100 µM (inactive) | > 100 µM (inactive) | > 100 µM (inactive) | – | > 100 µM (inactive) | – | > 100 µM (inactive) | > 100 µM (inactive) | > 100 µM (inactive) | > 100 µM (inactive) | – | > 100 µM (inactive) | > 100 µM (inactive) | > 100 µM (inactive) | > 100 µM (inactive) | > 100 µM (inactive) | > 100 µM (inactive)
10 | O=C1CS(=O)(=O)C(c2cccc(Oc3ccccc3)c2)N1c1cccc(Cl)c1Cl (stereo not drawn) | – | > 100 µM (inactive) | 26.9 µM (inactive) | 23.8 µM (inactive) | 31 µM (inactive) | 40.6 µM (inactive) | 39.1 µM (inactive) | 19.6 µM (inactive) | 35.7 µM (inactive) | – | 47.5 µM (inactive) | 19.1 µM (inactive) | 26.4 µM (inactive) | – | 51.4 µM (inactive) | 39.5 µM (inactive) | 20 µM (inactive) | 21 µM (inactive) | 13.5 µM (inactive) | –
11 | C[N+]1(C)CC[N+](C)(C)[BH-]1C(O)O | > 100 µM (inactive) | > 100 µM (inactive) | > 100 µM (inactive) | > 100 µM (inactive) | > 100 µM (inactive) | > 100 µM (inactive) | > 100 µM (inactive) | > 100 µM (inactive) | – | > 100 µM (inactive) | > 100 µM (inactive) | > 100 µM (inactive) | > 100 µM (inactive) | – | > 100 µM (inactive) | > 100 µM (inactive) | > 100 µM (inactive) | > 100 µM (inactive) | > 100 µM (inactive) | > 100 µM (inactive)
12 | Cc1ccc2c(c1)-c1nc(N)c(C#N)c(-c3ccc(Cl)cc3)c1CCS2(=O)=O | 24.6 µM (inactive) | 34.8 µM (inactive) | 24.7 µM (inactive) | – | 17.7 µM (inactive) | – | – | 39.3 µM (inactive) | 28.4 µM (inactive) | 39.4 µM (inactive) | – | 32 µM (inactive) | 26.8 µM (inactive) | – | 48.9 µM (inactive) | 50.6 µM (inactive) | 40 µM (inactive) | 45.6 µM (inactive) | 28.2 µM (inactive) | 64.3 µM (inactive)
13 | Cc1cn(S(=O)(=O)c2ccccc2)c2c(OCc3ccccc3)cc([N+](=O)[O-])cc12 | 30.6 µM (inactive) | 41.5 µM (inactive) | > 100 µM (inactive) | 35.7 µM (inactive) | > 100 µM (inactive) | > 10 µM (inactive) | > 100 µM (inactive) | – | 58.7 µM (inactive) | 96.8 µM (inactive) | > 100 µM (inactive) | > 100 µM (inactive) | 32.9 µM (inactive) | > 100 µM (inactive) | 79.8 µM (inactive) | 56.4 µM (inactive) | 31 µM (inactive) | > 100 µM (inactive) | 21.3 µM (inactive) | > 100 µM (inactive)
14 | C[N+]1(c2ccccc2)C=C(c2ccccc2)SC1=S (stereo not drawn) | 6.12 µM (inactive) | > 100 µM (inactive) | 23.1 µM (inactive) | 18.1 µM (inactive) | > 100 µM (inactive) | > 100 µM (inactive) | > 100 µM (inactive) | – | > 100 µM (inactive) | > 100 µM (inactive) | > 100 µM (inactive) | > 100 µM (inactive) | > 100 µM (inactive) | 21 µM (inactive) | 7.33 µM (inactive) | > 100 µM (inactive) | > 100 µM (inactive) | 48.9 µM (inactive) | > 100 µM (inactive) | > 100 µM (inactive)
15 | c1ccc(-c2cn3nc(N4CCOCC4)sc3n2)cc1 | – | > 100 µM (inactive) | > 100 µM (inactive) | > 100 µM (inactive) | > 100 µM (inactive) | 53.7 µM (inactive) | > 100 µM (inactive) | – | > 100 µM (inactive) | > 100 µM (inactive) | > 100 µM (inactive) | 31.8 µM (inactive) | > 100 µM (inactive) | > 100 µM (inactive) | > 100 µM (inactive) | > 100 µM (inactive) | 48.6 µM (inactive) | > 100 µM (inactive) | > 100 µM (inactive) | > 100 µM (inactive)
